Measurements reported in patent publication US20120171660A1, “METHOD FOR SCREENING AND PURIFYING ENTEROVIRUS, METHOD FOR MASS-PRODUCING ENTEROVIRUS, AND METHOD FOR MANUFACTURING ENTEROVIRUS VACCINE” (priority 2011, published 2012).

Assays:
EV71 [1] = experiment: ELISA, EV71 binding to monosaccharide-PAA coated plate; parameters: species or system Enterovirus 71; conditions: OD450; for specific binding to EV71 (FIG. 1D): 10^6 PFU EV71, plate coated with monosaccharide-PAA, versus control without EV71
Description: ELISA was also performed to detect the binding activities between EV71 and monosaccharides in the present embodiment, and the process of ELISA of the present embodiment is similar to that of Embodiment 1.
(§1) In addition, specific bindings between different enteroviruses and monosaccharides were also detected. First, 10^6 PFU of enteroviruses, EV71, Coxsackievirus A16 (CA16), Coxsackievirus B3 (Cox B3, CB3), and Coxsackievirus B2 (Cox B2, CB2), were added in to a 96-well plate coated with glucose-PAA and galactose-PAA.

[2] = system: Coxsackievirus B2 (Cox B2, CB2); experiment: ELISA, CB2 binding to monosaccharide-PAA coated plate; conditions: 10^6 PFU; plate coated with glucose-PAA or galactose-PAA; OD450
Description: as §1

[3] = target: EV71 binding to galectin-1 (Homo sapiens, UniProt P09382); experiment: ELISA, competition of monosaccharides with EV71 binding to galectin-1; parameters: species or system Enterovirus 71; conditions: EV71 incubated with the sugar at different concentrations at 4° C. for 2 hours; galectin-1 coated plate
Description: ELISA was used to detect the competition between monosaccharides and EV71 or lectins. First, EV71 was incubated in a medium supplemented with galactose, glucose, N-acetyl galactosamines, sucrose, or mannose with different concentration (conc.) at 4° C. for 2 hours. […] It is because the monosaccharides bound on the EV71 may first bind to lectins, so the binding between lectins and EV71 may further be inhibited.

EV71 [4] = experiment: ELISA, biotin-labeled monosaccharide-PAA binding to EV71 captured on anti-EV71 antibody plate; parameters: species or system Enterovirus 71; conditions: OD450; for binding of EV71 to monosaccharide (FIG. 1A): 10^6 PFU of EV71, biotin-labeled monosaccharide-PAA, compared to control without viruses or 10^6 PFU Dengue viruses; for binding activity between EV71 and monosaccharide versus amount of EV71 (FIG. 1B): 10 fold serial dilution of EV71 from 10^6 PFU to 10^2 PFU
Description: Enzyme-linked immunosorbent assay (ELISA) was used to detect the binding activities between EV71 and monosaccharides in the present embodiment. First, EV71 was added into a 96-well plate (Genesis, Taiwan) and bound to anti-EV71 antibody coated on the 96-well plate. Then, biotin-labeled monosaccharide polymers, such as glucose-PAA (polyacrylamide), mannose-PAA, galactose-PAA, N-acetyl-galactosamine-PAA (GalNAc-PAA), and N-acetyl-glucosamine-PAA (GlcNAc-PAA) were added into the 96-well plate, and reacted with EV71 at room temperature.

[5] = system: Coxsackievirus B3 (Cox B3, CB3); experiment: ELISA, CB3 binding to monosaccharide-PAA coated plate; conditions: 10^6 PFU; plate coated with glucose-PAA or galactose-PAA; OD450
Description: as §1

EV71 on SK-N-SH cells = experiment: Plaque assay, EV71 replication on SK-N-SH cells with monosaccharides; format: cell-based, Enterovirus 71; conditions: EV71 incubated with 0.625 M, 0.125M, 0.25M sugar, 72 hours; for production of EV71 on SK-N-SH cells, virus titer (FIG. 4A): 1 hour at 37° C., no wash; for production of EV71 on SK-N-SH cells, absorption stage (FIG. 4B): unbound viruses washed away by PBS after 1 hour
Description: Plaque assay was used to understand the relation between the monosaccharides and the replication of EV71 in the present embodiment.
Host cells, SK-N-SH cells (2×10^5 cells/well), were seeded in a 24-well plate, and incubated for 16-18 hours to form a monolayer cell. SK-N-SH cells were infected with EV71, which was incubated with different concentrations of glucose, galactose or N-acetylgalactosamine (0.625 M, 0.125M, and 0.25M). After 1 hour incubation at 37° C., DMEM with 1.6% methylcellulose and 2% FBS was added to incubate at 37° C. for 72 hours.
First, SK-N-SH cells were infected with EV71, which were incubated with different concentrations of glucose, galactose or N-acetylgalactosamine (0.625 M, 0.125M, and 0.25M). After 1 hour incubation at 37° C., unbound viruses were washed away by PBS, DMEM with 1.6% methylcellulose and 2% FBS was added to incubate at 37° C. for 72 hours.
In addition, SK-N-SH cells were infected with EV71 in a glucose-containing medium. After 1 hour incubation at 37° C., viruses, which were unbound on the 24-well plate were washed away with PBS. Then, the infected host cells were incubated in a medium containing 0.25M glucose or galactose (supplemented with 1.6% methylcellulose and 2% FBS) at 37° C. for 72 hours.

[6] = system: Coxsackievirus A16 (CA16); experiment: ELISA, CA16 binding to monosaccharide-PAA coated plate; conditions: 10^6 PFU; plate coated with glucose-PAA or galactose-PAA; OD450
Description: as §1

dengue virus (DV) = experiment: ELISA, dengue virus binding to galectin-1 coated plate; conditions: 10^6 PFU of virus, OD450
Description: In addition, 106 PFU of different viruses including EV71, CA16, influenza virus (Flu) or dengue virus (DV) were added into a 96-well plate coated with galactin-1. Then, anti-EV71 antibody and HRP-conjugated goat anti-mouse IgG antibody were sequentially added into the 96-well plate.

CA16 = experiment: ELISA, CA16 binding to galectin-1 coated plate; parameters: species or system Coxsackievirus A16; conditions: 10^6 PFU of virus, OD450
influenza virus (Flu) = experiment: ELISA, influenza virus binding to galectin-1 coated plate; conditions: 10^6 PFU of virus, OD450
EV71 [7] = experiment: ELISA, EV71 binding to galectin-1 coated plate; parameters: species or system Enterovirus 71
Description: Except the aforementioned lectins, the binding activity between EV71 and mammalian lectin such as galectin-1 was also detected in the present embodiment. First, a different amount of EV71 (10 fold serial dilution from 10^6 PFU to 10^4 PFU) was incubated in a 96-well plate coated with galectin-1.
It means that the monosaccharides such as glucose may first bind to EV71 during the formation of EV71 viral particles, and the monosaccharides bound on EV71 may further participate in the binding between EV71 and galactin-1.

Chain of EV71 binding to galectin-1 (P09382 2-135 limits assumed): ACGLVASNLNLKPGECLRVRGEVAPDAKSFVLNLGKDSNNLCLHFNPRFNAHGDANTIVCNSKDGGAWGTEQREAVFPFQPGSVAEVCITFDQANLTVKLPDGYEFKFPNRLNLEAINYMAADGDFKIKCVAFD

Compound	specific binding to EV71 (FIG. 1D) (EV71 [1])	binding activity to EV71 (FIGS. 1E, 1F) (EV71 [1]; 10^6 PFU, plate coated with glucose-PAA or galactose-PAA)	binding activity to CB2 (FIGS. 1E, 1F) [2]	effect on binding between EV71 and lectins (galectin-1) by competition (FIG. 3) [3]	binding of EV71 to monosaccharide (FIG. 1A) (EV71 [4])	binding activity between EV71 and monosaccharide versus amount of EV71 (FIG. 1B) (EV71 [4])	binding activity to CB3 (FIGS. 1E, 1F) [5]	production of EV71 on SK-N-SH cells, virus titer (FIG. 4A) (EV71 on SK-N-SH cells)	production of EV71 on SK-N-SH cells, absorption stage (FIG. 4B) (EV71 on SK-N-SH cells)	specific binding to CA16 (FIGS. 1E, 1F) [6]	binding of galectin-1 to dengue virus (FIG. 2D) (dengue virus (DV))	binding of galectin-1 to CA16 (FIG. 2D) (CA16)	binding of galectin-1 to influenza virus (FIG. 2D) (influenza virus (Flu))	binding to galectin-1 of EV71 incubated in sugar-free medium (FIG. 2E) (EV71 [7]; 10^6 PFU EV71 incubated in glucose-free medium)	binding of galectin-1 to EV71 (FIG. 2D) (EV71 [7]; 10^6 PFU of virus, galectin-1 coated plate, OD450)	binding of EV71 to galectin-1 (FIG. 2C) (EV71 [7]; EV71 10 fold serial dilution from 10^6 PFU to 10^4 PFU, bound amount increases with EV71 added)
O=C[C@H](O)[C@@H](O)[C@@H](O)[C@H](O)CO [galactose]	can specifically bind	high binding activity	do not show any binding activity	partially inhibited	can bind	enhanced as the amount of EV71 was increased	do not show any binding activity	enhance the production of EV71	enhance the production of EV71	can specifically bind	–	–	–	–	–	–
CC(=O)N[C@H]1C(O)O[C@H](CO)[C@H](O)[C@@H]1O (some centres unmarked) [N-acetyl-galactosamine]	can specifically bind	–	–	partially inhibited	can bind	enhanced as the amount of EV71 was increased	–	enhance the production of EV71	enhance the production of EV71	–	–	–	–	–	–	–
CC(=O)N[C@H]1C(O)O[C@H](CO)[C@@H](O)[C@@H]1O (some centres unmarked) [N-acetyl-glucosamine]	can specifically bind	–	–	–	–	–	–	–	–	–	–	–	–	–	–	–
galactin-1: mammalian lectin such as galectin-1, coated on 96-well plate	–	–	–	–	–	–	–	–	–	–	does not bind	specifically binds	does not bind	cannot bind	specifically binds	binds
